# Assay results reported in PubChem BioAssay (NCI).
# Values joined by “and” are separate entries in the source; they are usually repeats but may differ in a detail not shown here. Identical values can stand only once.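 In this assay, cells in 96-well plates receive the compound at five concentrations for 48 hours. Endpoints are linearly interpolated between the surrounding concentrations. GI50 marks 50% less growth. TGI marks complete inhibition of growth.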
# How the values were obtained:
# Test in all cases: NCI-60 cell line screen, 48 h
# [1] = tested on: T-47D breast
# [2] = tested on: LXFL 529 NSCLC
# [3] = tested on: SNB-78 CNS
# [4] = tested on: DMS 114 small cell lung
# [5] = tested on: DMS 273 small cell lung
# [6] = tested on: DLD-1 colon
# [7] = tested on: XF 498 CNS
# [8] = tested on: RXF-631 renal
# [9] = tested on: HOP-18 NSCLC
# [10] = tested on: MDA-N
Structure (SMILES),GI50 [1],TGI [1],TGI [2],TGI [3],TGI [4],TGI [5],TGI [6],also measured
COc1cc2c(cc1OC)-c1c(c3ccc([N+](=O)[O-])cc3c(=O)n1CCCN=[N+]=[N-])C2=O,> 100 µM,> 100 µM,–,–,–,–,–,–
CCN(CC)CCCNc1nccc2c(C)c3[nH]c4ccncc4c(=O)c3cc12,–,–,11.4 µM,13.7 µM,2.91 µM,11.8 µM,21.8 µM,TGI [7]: 6.63 µM; TGI [8]: 22 µM; TGI [9]: 18.7 µM
COc1ccccc1-c1ccc2c(N)c(C(=O)c3ccc4c(c3)OCO4)sc2n1,3.39 µM,14.4 µM,–,–,–,–,–,–
CC[C@H](C)C(=O)O[C@H]1CCC=C2C=C[C@H](C)[C@H](CC[C@@H]3C[C@@H](O)CC(=O)O3)[C@H]21,21.9 µM,> 100 µM,–,–,–,–,–,–
CCCCNP1(NCCCC)=NP(NCCCC)(NCCCC)=NP(NCCCC)(NCCCC)=NP(NCCCC)(NCCCC)=N1,0.26 µM,3.07 µM,–,–,–,–,–,–
O=C(Nc1cccc(-n2ccc3c(NC(=O)c4ccccc4)nccc32)c1)c1ccc(Cl)c(Cl)c1,1.32 µM,2.85 µM,–,–,–,–,–,–
COC(=O)c1cc2c([nH]c3ccccc32)c(-c2nc3ccccc3cc2CO)n1,> 100 µM,> 100 µM,–,–,–,–,–,–
Nc1nc(N)c(CCCCc2ccccc2)c(/C=C/c2ccc([N+](=O)[O-])cc2)n1,–,–,–,12.8 µM,4.29 µM,–,> 100 µM,TGI [7]: 3.74 µM
Fc1ccc(-c2c(-c3ccncc3)[nH]c3cccnc23)cc1,13.4 µM,> 25 µM,–,–,–,–,–,–
CCC1=CCC(P(=O)(c2ccccc2)c2ccccc2)CC1C (configuration not stated),–,–,> 100 µM,> 100 µM,> 100 µM,> 100 µM,–,TGI [7]: > 100 µM; TGI [9]: > 100 µM
C[C@H]1[C@H](C)CC[C@]2(C(=O)O)CCC3(COC(=O)/C=C/c4ccc(O)cc4)C(=CCC4[C@@]5(C)CC[C@H](O)C(C)(C)C5CC[C@]43C)[C@H]12 (some centres not stated),–,–,24.8 µM,> 100 µM,32 µM,25.9 µM,15.8 µM,TGI [8]: 30.4 µM; TGI [9]: 33.9 µM
N#Cc1ccc(C(=O)c2cnn(-c3ccc(F)cc3)c2N)cc1,> 25 µM,> 25 µM,–,–,–,–,–,–
CCc1c2c(nc3ccc(OC(=O)OCc4ccc(B5OC(C)(C)C(C)(C)O5)cc4)cc13)-c1cc3c(c(=O)n1C2)COC(=O)[C@]3(O)CC,< 0.01 µM,> 100 µM,–,–,–,–,–,–
CN1CCN(C(=O)[C@@]2(C)CC[C@]3(C)CC[C@]4(C)C(=CC[C@@H]5[C@@]6(C)CC[C@H](OC(=O)c7cccnc7)C(C)(C)[C@@H]6CC[C@]54C)[C@@H]3C2)CC1,3.12 µM,17 µM,–,–,–,–,–,–
COc1ccc(C2CC(c3ccc4ccccc4c3)=NN2c2nc(O)c(C3=c4cc(Cl)ccc4=NC3=O)s2)cc1 (configuration not stated),0.0223 µM and < 0.005 µM,–,–,–,–,–,–,–
CN(C)c1ccc(/C=N/n2c(CCCCc3n[nH]c(=S)n3/N=C/c3ccc(N(C)C)cc3)n[nH]c2=S)cc1,0.022 µM,17.3 µM,–,–,–,–,–,–
Cc1ccc2c(c1)C(=O)/C(=C/c1cccc(OCC(=O)c3ccc(Cl)cc3)c1)CS2,5.67 µM,26.5 µM,–,–,–,–,–,–

Structure (SMILES),GI50 [1],TGI [1],TGI [2],TGI [3],TGI [4],TGI [5],TGI [6],also measured
NS(=O)(=O)c1ccc(-n2nc(-c3ccccc3)cc2-c2cc(O)ccc2O)cc1,> 100 µM,> 100 µM,–,–,–,–,–,–
CC1(C)C=C(N2CCN(C3=CC(C)(C)NC(C)(C)C3)CC2)CC(C)(C)N1,–,–,> 100 µM,> 100 µM,> 100 µM,> 100 µM,> 100 µM,TGI [7]: > 100 µM; TGI [9]: > 100 µM
CC[C@H](C)[C@H](NC(=O)[C@H]1CCCCN1C)C(=O)N(C)[C@H](C[C@@H](OC(C)=O)c1nc(C(=O)NC23C4C5C2C2C3C4C52C(=O)OC)cs1)C(C)C (some centres not stated),0.00275 µM,–,–,–,–,–,–,–
C=C(C)C1CC=C(C)C(O)([C@@]2(O)C[C@H](C(=C)C)CC=C2C)C1 (some centres not stated),–,–,> 100 µM,> 100 µM,> 100 µM,39.9 µM,> 100 µM,TGI [7]: 29.7 µM
CC(/C=C1\CCC(CN(C)C)C1=O)c1cccc(Br)c1 (configuration not stated),–,–,17.1 µM,44.7 µM,54.8 µM,–,35.1 µM,TGI [7]: 35.1 µM; TGI [8]: 16.9 µM; TGI [9]: 33.9 µM
CN(CCCCCCCCNc1ccnc2ccccc12)Cc1ccc(-c2ccc(-c3ccc(C#N)cc3)s2)cc1,0.881 µM,3.16 µM,–,–,–,–,–,–
O=C(CC1(O)C(=O)Nc2c(Cl)cc(Cl)cc21)c1ccc([N+](=O)[O-])cc1 (configuration not stated),–,–,> 51.5 µM,> 78.9 µM,53.1 µM,> 100 µM,> 66 µM,TGI [7]: > 100 µM; TGI [9]: > 100 µM
O=C(CS(=O)c1nc2ccccc2nc1-c1ccccc1)Nc1ccc(Cl)cc1 (configuration not stated),32.7 µM,> 100 µM,–,–,–,–,–,–
C=C1C(=O)O[C@H]2[C@H]1CC/C(CNC(=O)C(C)c1ccc(CC(C)C)cc1)=C\CC[C@@]1(C)O[C@@H]21 (some centres not stated),1.78 µM,4.79 µM,–,–,–,–,–,–
C#Cc1cccc(Nc2ncnc3ccc(-c4cnc(N)nc4)cc23)c1,0.664 µM,4.62 µM,–,–,–,–,–,–
CC(O)(c1ccc(OCCC[N+](C)(C)C)cc1)C(C)(O)c1ccc(OCCC[N+](C)(C)C)cc1 (configuration not stated),–,–,> 100 µM,> 100 µM,> 100 µM,> 100 µM,> 100 µM,TGI [9]: > 100 µM
O=c1oc2c(O)c(O)cc3c(=O)oc4c(O)c(O)cc1c4c23,–,–,> 100 µM,> 100 µM,> 100 µM,> 100 µM,> 100 µM,GI50 [3]: > 100 µM; GI50 [5]: > 100 µM; GI50 [6]: > 100 µM; TGI [7]: > 100 µM
CSC(=NC(=O)c1ccccc1)SCCSC(=NC(=O)c1ccccc1)SC,–,–,> 100 µM,> 100 µM,> 100 µM,> 100 µM,> 100 µM,TGI [7]: > 100 µM; TGI [8]: > 100 µM
CSc1nc(SC)c2c(C)c(Br)[nH]c2n1,–,> 100 µM,–,–,–,–,–,TGI [10]: > 100 µM
C/C(CC(=O)Nc1cccc([N+](=O)[O-])c1)=N/NC(N)=S,–,–,> 100 µM,–,> 100 µM,–,> 100 µM,–
CN(CCc1ccccn1)/[N+]([O-])=N/O (tested in a mixture with another compound),–,–,> 100 µM,> 100 µM,> 100 µM,> 100 µM,> 100 µM,TGI [8]: > 100 µM; TGI [9]: > 100 µM
